Experimental data reported in patent US20030176390A1, “Methods of treating insulin resistance syndrome and diabetes” (priority 2001, published 2003).
Like-named read-outs stand apart in the source and are kept apart here.

Experiments:
[1] = system: rat adipocytes; assay: In vitro lipolysis assay (antilipolytic activity in rat adipocytes); assay type: cell-based; conditions: norepinephrine-stimulated lipolysis, glycerol assayed, 60 min, read-out: Lipo ec50
Description: Determination of Antilipolytic Activity in Rat Adipocytes
Isolation of Adipocytes from Epididymal Fat Pads
Adipose tissue is removed from anesthetized rats and rinsed twice in incubation medium (2.09 g sodium bicarbonate and 0.04 g EDTA, disodium salt, in 1 L Krebs buffer). Each rat (300-350 g) yields approximately 4 mL of adipose tissue. The adipose tissue (35 mL) is cut into small pieces with scissors and washed with incubation medium (50 mL). The mixture is poured into the barrel of a 50 mL syringe to which is attached a short piece of clamped tubing instead of a needle. The aqueous phase is allowed to drain. A second wash with incubation medium is passed through the syringe. The tissue is added to 50 mL of collagenase solution (collagenase (90 mg), bovine serum albumin (BSA) (500 mg), and 0.1 M calcium chloride solution (1 mL), in incubation medium (50 mL)) in a 1 L bottle. The mixture is shaken in an environmental at 37° C. for about 60 minutes under an atmosphere of 95% oxygen/5% carbon dioxide to effect digestion of the tissue. The dispersed cells are poured through 2 layers of cheese cloth into a 100 mL plastic beaker. The undigested clumps in the cloth are rinsed once with incubation medium (20 mL). The cells in the beaker are centrifuged in 2 plastic tubes for 30 seconds at room temperature at 300 rpm. The aqueous phase is aspirated from beneath the loosely packed layer of floating fat cells and discarded. The adipocytes are gently poured into a 250 mL plastic beaker containing 100 mL of rinse solution (1 g BSA per 100 mL incubation medium). After gentle stirring the centrifugation step is repeated. Another wash with rinse solution follows. The cells are pooled and their volume is estimated with a graduated cylinder. The adipocytes are diluted in twice their volume of assay buffer (incubation medium (120 mL), BSA (1.2 g), pyruvic acid (13 mg)).
The assay is performed in 20 mL plastic scintillation vials and the total assay volume is 4.2 mL. Assay buffer (2.5 mL), diluted adipocytes (1.5 mL), and a solution of the compound to be tested (12.3 μL) adenosine agonist (12.3 μl; varying concentration) is incubated in the environmental shaker for 15 minutes, then the reaction is started with norepinephrine solution (41.2 μL) (10 nM, in a carrier solution containing water (100 mL), BSA (4 mg), and 0.1 M EDTA (20 μL))and adenosine deaminase (1 μg/mL, 41.2 μl). After sixty minutes in the shaker the reaction is terminated by putting the vials on ice. […] The hard lipid layer is removed by aspiration and the aqueous layer is assayed for glycerol (400 μl of sample). The positive control is done in the absence of any adenosine agonist, substituting water in place of the solution to be tested.

[2] = Rattus norvegicus, Adipocyte, 1 h

EC50 [1, 2] | melting point | EC50 [1] | Structure (SMILES)
3.3 nM | 135 to 137 °C | – | OC[C@H]1C[C@@H](n2cnc3c(N[C@H]4CCN(c5cc(C(F)(F)F)ccn5)C4)ncnc32)[C@H](O)[C@@H]1O [Example 34, (1R,2S,3R,5R)-5-hydroxymethyl-3-[6-[1-(4-trifluoromethylpyridin-2-yl)pyrrolidin-3(S)-ylamino]-purin-9-yl]cyclopentane-1,2-diol]
1.37 nM | 251 to 253 °C | – | COc1cc(N2CC[C@H](Nc3ncnc4c3ncn4[C@@H]3O[C@H](CO)[C@@H](O)[C@H]3O)C2)ncn1 [Example 20, (2R,3R,4S,5R)-5-hydroxymethyl-2-[6-[1-(6-methoxypyrimidin-4-yl)pyrrolidin-3(S)-ylamino]-purin-9-yl]tetrahydrofuran-3,4-diol]
2.4 nM | 127 to 130 °C | – | COC[C@H]1C[C@@H](n2cnc3c(N[C@H]4CCN(c5cccc(Cl)c5)C4)ncnc32)[C@H](O)[C@@H]1O [Example 56, (1R,2S,3R,5R)-3-[6-[1-(3-chlorophenyl)-pyrrolidin-3(S)-ylamino]-purin-9-yl]-5-methoxymethylcyclopentane-1,2-diol]
17.6 nM | 97 to 99 °C | – | OC[C@H]1C[C@@H](n2cnc3c(N[C@H]4CCN(c5ccccc5)C4)ncnc32)[C@H](O)[C@@H]1O [Example 39, (1R,2S,3R,5R)-5-hydroxymethyl-3-[6-[1-(phenyl)-pyrrolidin-3(S)-ylamino]-purin-9-yl]cyclopentane-1,2-diol]
182 nM | 119 to 122 °C | – | OC[C@H]1C[C@@H](n2cnc3c(N[C@H]4CCN(c5nccc6ccccc56)C4)ncnc32)[C@H](O)[C@@H]1O [Example 41, (1R,2S,3R,5R)-5-hydroxymethyl-3-[6-[1-(isoquinolin-1-yl)pyrrolidin-3(S)-ylamino]-purin-9-yl]cyclopentane-1,2-diol]
247 nM | 114 to 116 °C | – | C[C@H]1C[C@@H](n2cnc3c(N[C@H]4CCN(c5ccc(C(F)(F)F)cn5)C4)ncnc32)[C@H](O)[C@@H]1O [Example 31, (1R,2S,3R,5S)-5-methyl-3-[6-[1-(5-trifluoromethylpyridin-2-yl)pyrrolidin-3(S)-ylamino]-purin-9-yl]cyclopentane-1,2-diol]
4.2 nM | 118 to 121 °C | – | OC[C@H]1C[C@@H](n2cnc3c(N[C@H]4CCN(c5ccc(Cl)cn5)C4)ncnc32)[C@H](O)[C@@H]1O [Example 33, (1R,2S,3R,5R)-3-[6-[1-(5-chloropyridin-2-yl)pyrrolidin-3(S)-ylamino]-purin-9-yl]-5-hydroxymethylcyclopentane-1,2-diol]
2.8 nM | – | – | O=[N+]([O-])c1ccc(N2CC[C@H](Nc3ncnc4c3ncn4[C@@H]3C[C@H](CO)[C@@H](O)[C@H]3O)C2)cc1 [Example 37, (1R,2S,3R,5R)-5-hydroxymethyl-3-[6-[1-(4-nitrophenyl)-pyrrolidin-3(S)-ylamino]-purin-9-yl]cyclopentane-1,2-diol]
– | – | 114 nM | OC[C@H]1C[C@@H](n2cnc3c(N[C@H]4CCN(c5cc(C(F)(F)F)c(C(F)(F)F)cn5)C4)ncnc32)[C@H](O)[C@@H]1O [Example 38, (1R,2S,3R,5R)-3-[6-[1-(4,5-bistrifluorpyridin-2-yl)pyrrolidin-3(S)-ylamino]-purin-9-yl]-5-hydroxymethylcyclopentane-1,2-diol]
3.3 nM | 122 to 125 °C | – | COC[C@H]1C[C@@H](n2cnc3c(N[C@H]4CCN(c5ccc(Cl)cc5)C4)ncnc32)[C@H](O)[C@@H]1O [Example 55, (1R,2S,3R,5R)-3-[6-[1-(4-chlorophenyl)-pyrrolidin-3(S)-ylamino]-purin-9-yl]-5-methoxymethylcyclopentane-1,2-diol]
8 nM | 169 to 171 °C | – | OC[C@H]1C[C@@H](n2cnc3c(N[C@H]4CCN(c5ccc(Br)cn5)C4)ncnc32)[C@H](O)[C@@H]1O [Example 32, (1R,2S,3R,5R)-3-[6-[1-(5-bromopyridin-2-yl)pyrrolidin-3(S)-ylamino]-purin-9-yl]-5-hydroxymethylcyclopentane-1,2-diol]
– | – | 18.6 nM | COC[C@H]1C[C@@H](n2cnc3c(N[C@H]4CCN(c5ccc(Cl)cn5)C4)ncnc32)[C@H](O)[C@@H]1O [Example 53, (1R,2S,3R,5R)-3-[6-[1-(5-chlorpyridin-2-yl)pyrrolidin-3(S)-ylamino]-purin-9-yl]-5-methoxymethylcyclopentane-1,2-diol]
17 nM | 110 to 111 °C | – | COC[C@H]1C[C@@H](n2cnc3c(N[C@H]4CCN(c5ccc(Br)cn5)C4)ncnc32)[C@H](O)[C@@H]1O [Example 52, (1R,2S,3R,5R)-3-[6-[1-(5-bromopyridin-2-yl)pyrrolidin-3(S)-ylamino]-purin-9-yl]-5-methoxymethylcyclopentane-1,2-diol]
3.57 nM | 110 to 111 °C | – | OC[C@H]1C[C@@H](n2cnc3c(N[C@H]4CCN(c5ccc(C(F)(F)F)cn5)C4)ncnc32)[C@H](O)[C@@H]1O [Example 29, (1R,2S,3R,5R)-5-hydroxymethyl-3-[6-[1-(5-trifluoromethylpyridin-2-yl)pyrrolidin-3(S)-ylamino]-purin-9-yl]cyclopentane-1,2-diol]
30 nM | – | – | OC[C@H]1C[C@@H](n2cnc3c(N[C@H]4CCN(c5ccc6cc(Br)ccc6n5)C4)ncnc32)[C@H](O)[C@@H]1O [Example 42, (1R,2S,3R,5R)-3-[6-[1-(6-bromoquinolin-2-yl)pyrrolidin-3(S)-ylamino]-purin-9-yl]-5-hydroxymethylcyclopentane-1,2-diol]
27.8 nM | 128 °C | – | COC[C@H]1C[C@@H](n2cnc3c(N[C@H]4CCN(c5ccc(C(F)(F)F)cc5)C4)ncnc32)[C@H](O)[C@@H]1O [Example 54, (1R,2S,3R,5R)-5-methoxymethyl-3-[6-[1-(4-trifluoromethylphenyl)pyrrolidin-3(S)-ylamino]-purin-9-yl]cyclopentane-1,2-diol]
3.07 nM | 130 °C (dec.) | – | OC[C@H]1O[C@@H](n2cnc3c(NC4CCN(c5ccc(Cl)nn5)C4)ncnc32)[C@H](O)[C@@H]1O (stereo partly drawn) [Example 22, (2R,3R,4S,5R)-5-hydroxymethyl-2-[6-[1-(6-chloropyridazin-3-yl)pyrrolidin-3-ylamino]-purin-9-yl]-tetrahydrofuran-3,4-diol]
2.82 nM | – | – | O=[N+]([O-])c1ccc(N2CCC(Nc3ncnc4c3ncn4[C@@H]3C[C@H](CO)[C@@H](O)[C@H]3O)C2)cc1 (stereo partly drawn) [Example 7, (1R,2S,3R,5R)-5-hydroxymethyl-3-[6-[1-(4-nitrophenyl)pyrrolidin-3-ylamino]-purin-9-yl]cyclopentane-1,2-diol]
2.24 nM | – | – | OC[C@H]1O[C@@H](n2cnc3c(N[C@H]4CCN(c5ccc(-c6cccs6)cn5)C4)ncnc32)[C@H](O)[C@@H]1O [Example 18, (2R,3R,4S,5R)-5-hydroxymethyl-2-[6-[1-(5-thiophen-2-ylpyridin-2-yl)-pyrrolidin-3(S)-ylamino]-purin-9-yl]tetrahydrofuran-3,4-diol]
92.5 nM | – | – | COC[C@H]1C[C@@H](n2cnc3c(N[C@H]4CCN(c5cc(Cl)ncn5)C4)ncnc32)[C@H](O)[C@@H]1O [Example 46, (1R,2S,3R,5R)-3-[6-[1-(6-chloropyrimidin-4-yl)pyrrolidin-3(S)-ylamino]-purin-9-yl]-5-methoxymethylcyclopentane-1,2-diol]
– | – | 10.9 nM | CC(C)NC(=O)[C@H]1C[C@@H](n2cnc3c(N[C@H]4CCN(c5cc(C(F)(F)F)ccn5)C4)ncnc32)[C@H](O)[C@@H]1O [Example 2, (1S,2R,3S,4R)-2,3-dihydroxy-4-[6-[1-(4-trifluormethylpyridin-2-yl)pyrrolidin-3(S)-ylamino]purin-9-yl]cyclopentanecarboxylic acid isopropylamide]
129 nM | – | – | OC[C@H]1C[C@@H](n2cnc3c(N[C@H]4CCN(c5ccc(Cl)nn5)C4)ncnc32)[C@H](O)[C@@H]1O [Example 47, (1R,2S,3R,5R)-3-[6-[1-(6-chloropyridazin-3-yl)pyrrolidin-3(S)-ylamino]-purin-9-yl]-5-hydroxymethylcyclopentane-1,2-diol]
